Consider 65 compounds from patent publication US6713473B1, “Tricyclic compounds” (Meiji Seika Kaisha, Ltd., priority 1999, dated 2004).

The target in the first assay is T1, human Y5 receptor (Homo sapiens, UniProt Q15761).
T1 sequence (Q15761 1-445): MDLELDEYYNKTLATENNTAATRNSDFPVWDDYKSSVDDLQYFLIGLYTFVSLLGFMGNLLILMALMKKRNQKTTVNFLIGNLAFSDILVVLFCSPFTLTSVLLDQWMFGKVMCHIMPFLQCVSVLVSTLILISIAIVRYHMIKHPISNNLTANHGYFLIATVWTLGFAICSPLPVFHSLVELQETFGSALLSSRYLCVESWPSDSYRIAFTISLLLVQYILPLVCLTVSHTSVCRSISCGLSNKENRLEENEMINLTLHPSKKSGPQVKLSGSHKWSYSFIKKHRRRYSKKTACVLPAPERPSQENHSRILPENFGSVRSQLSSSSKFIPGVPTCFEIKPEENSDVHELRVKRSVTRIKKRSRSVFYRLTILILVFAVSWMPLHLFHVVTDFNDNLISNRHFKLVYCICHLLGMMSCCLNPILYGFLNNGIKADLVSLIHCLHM
The assay is described as follows: Y5 receptor binding inhibition test.
Settings: not given
With `CCCn1c2c(c3cc(NC(=O)N4CCOCC4)ccc31)CCCC2` [Compound 8-3], the “% Inhibition ratio (10 μM)” value turned out to be 101%.
As for `CC(C)n1c2c(c3cc(NC(=O)N(CCO)CCO)ccc31)CCCC2` [Compound 6-2], the “% Inhibition ratio (10 μM)” value is given as 86%.
As to `CC(C)n1c2c(c3cc(NC(=O)NCCO)ccc31)CCCC2` [Compound 4-2], the “% Inhibition ratio (10 μM)” value is on record as 89%.

Still in this assay, the particulars now being: 2 h, read-out: % Inhibition ratio (10 μM).
As for `CCn1c2ccccc2c2cc(C(=O)NCCCCCNC(=O)c3ccc4[nH]ccc4c3)ccc21` [Compound 1-25], the inhibition at 10 µM is 100%.
On the same count and under the same terms, as for `CCn1c2ccccc2c2cc(C(=O)NCCCCCNS(=O)(=O)N(C)C)ccc21` [Compound 1-24], the figure is 98%; as for `CCn1c2ccccc2c2cc(C(=O)NCCCCCNS(=O)(=O)c3cccnc3)ccc21` [Compound 1-57], 89%.
Same read-out and setting: as for `CCn1c2ccccc2c2cc(C(=O)NCCCCCCNS(=O)(=O)c3cccc4ccccc34)ccc21` [Compound 1-33], the figure is 82%; as for `CCn1c2ccccc2c2cc(C(=O)NCCCCCNS(=O)(=O)c3cccc4cccnc34)ccc21` [Compound 1-16], 94%; as for `CC(C)n1c2c(c3cc(NC(=O)N(C)CCc4ccncc4)c(F)cc31)CCCC2` [Compound 12-1], 100%.
The same measure, in the same setting: then `CCn1c2ccccc2c2cc(C(=O)NCCN(C)CCNS(=O)(=O)c3cccc4ccccc34)ccc21` [Compound 1-30], with 99%; and `CCn1c2ccccc2c2cc(NC(=O)C3CC3)ccc21` [Compound 3-5], with 100%; and `CCn1c2ccccc2c2cc(C(=O)NCCCCCNS(=O)(=O)c3cccc4ccccc34)c(O)cc21` [Compound 1-42], with 74%.
As to `CCn1c2ccccc2c2cc(C(=O)NCCCCCN3C(=O)c4ccccc4C3=O)ccc21` [Compound 1-56], the inhibition at 10 µM came out at 94%.
Regarding `CCn1c2ccccc2c2cc(C(=O)NC(C)CCCCNS(=O)(=O)c3cccc4ccccc34)ccc21` (centres unmarked) [Compound 1-34], the inhibition at 10 µM turned out to be 88%.
Take `CCn1c2c(c3cc(C(=O)NCCOCCNS(=O)(=O)C(C)C)ccc31)CCCC2` [Compound 1-52]: the inhibition at 10 µM came out at 88%.
As for `CCn1c2ccccc2c2cc(NC(=O)CCCNS(=O)(=O)c3cccc4ccccc34)ccc21` [Compound 1-5], the inhibition at 10 µM was found to be 98%.
In the case of `CCn1c2ccccc2c2cc(NC(=O)CCCCNS(=O)(=O)c3cccc4ccccc34)ccc21` [Compound 1-1], the inhibition at 10 µM came to 95%.
With `CCn1c2c(c3cc(NC(C)=O)ccc31)CCC2` [Compound 3-3], the inhibition at 10 µM was 89%.
In the case of `CCn1c2ccccc2c2cc(C(=O)NCCCCCNC(=O)C3CCCCC3)ccc21` [Compound 1-19], the inhibition at 10 µM was 84%.
As to `CCn1c2ccccc2c2cc(C(=O)NCCCCCNS(=O)(=O)c3ccc4ccccc4c3)ccc21` [Compound 1-14], the inhibition at 10 µM was 106%.
Regarding `CCn1c2ccccc2c2cc(C(=O)NCCCCNS(=O)(=O)c3cccc4ccccc34)ccc21` [Compound 1-31], the inhibition at 10 µM worked out at 94%.
Same read-out and setting: as for `CCn1c2ccccc2c2cc(NC(=O)CCCCCNS(=O)(=O)c3cccc4cccnc34)ccc21` [Compound 1-7], the figure is 100%; as for `CC(=O)n1c2ccccc2c2cc(C(=O)NCCCCCNS(=O)(=O)c3cccc4ccccc34)ccc21` [Compound 1-54], 88%.
With `CCOc1c(C(=O)NCCCCCNS(=O)(=O)c2cccc3ccccc23)ccc2c1c1ccccc1n2CC` [Compound 1-39], the inhibition at 10 µM stood at 80%.
As to `CCn1c2c(c3cc(C(=O)NCCOCCSc4ncn[nH]4)ccc31)CCCC2` [Compound 2-1], the inhibition at 10 µM is 71%.
Turning to `CCOc1c(C(=O)NCCCCCNS(=O)(=O)c2cccc3ccccc23)ccc2c1c1c(n2CC)CCCC1` [Compound 1-40], the inhibition at 10 µM is 91%.
For `COCCn1c2c(c3cc(C(=O)NCCOCCNS(C)(=O)=O)ccc31)CCCC2` [Compound 1-53], the inhibition at 10 µM was determined as 66%.
On to `CCn1c2ccccc2c2cc(C(=O)NCCSCCNS(=O)(=O)c3cccc4ccccc34)ccc21` [Compound 1-27], for which the inhibition at 10 µM is 96%.
As for `CC(C)n1c2ccccc2c2cc(C(=O)NCCCCCNS(=O)(=O)c3cccc4ccccc34)ccc21` [Compound 1-47], the inhibition at 10 µM is 100%.
On the same count and under the same terms, as for `CC(C)S(=O)(=O)NCCCCCNC(=O)c1ccc2c(c1)c1c(n2CCO)CCCC1` [Compound 1-59], the figure is 93%; as for `CCn1c2ccccc2c2cc(NC(=O)COC)ccc21` [Compound 3-7], 95%; as for `CCn1c2ccccc2c2cc(C(=O)NCCCCCNC(=O)c3ccccc3)ccc21` [Compound 1-21], 97%.
Regarding `CCn1c2ccccc2c2cc(NC(=O)CCCCCNC(=O)c3cccnc3)ccc21` [Compound 1-8], the inhibition at 10 µM turned out to be 100%.
Turning to `COCCn1c2ccccc2c2cc(C(=O)NCCCCCNS(=O)(=O)c3cccc4ccccc34)ccc21` [Compound 1-49], the inhibition at 10 µM was 91%.
Take `CCn1c2c(c3c(O)c(C(=O)NCCCCCNS(=O)(=O)c4cccc5ccccc45)ccc31)CCCC2` [Compound 1-44]: the inhibition at 10 µM is 69%.
On to `CCCS(=O)(=O)NCCCCCNC(=O)c1ccc2c(c1)c1ccccc1n2CC` [Compound 1-11], for which the inhibition at 10 µM came out at 103%.

The assay is the same for the next values; noted with them: test compound 10 μM; 3H-NPY; membrane of insect cells expressing human Y5 receptor; 4° C., 2 hours; relative to Y5 specific binding in solvent group.
As for `CC(C)n1c2c(c3cc(NC(=O)N4CCCCCC4)ccc31)CCCC2` [Compound 7-3], the “% Inhibition ratio (10 μM)” value amounted to 98%.
With `CC(C)n1c2c(c3cc(NC(=O)N4CCN(c5ccccn5)CC4)ccc31)CCCC2` [Compound 7-20], the “% Inhibition ratio (10 μM)” value came out at 89%.
In the case of `CC(C)n1c2c(c3cc(NC(=O)N(C)CCCSc4nnc[nH]4)ccc31)CCCC2` [Compound 5-24], the “% Inhibition ratio (10 μM)” value is given as 95%.
Still for that read-out and setting: as for `CC(C)n1c2c(c3cc(NC(=O)N(C)CCSc4nnc[nH]4)ccc31)CCCC2` [Compound 5-23], the figure is 98%; as for `CC(C)n1c2c(c3cc(NC(=O)N4CCOCC4)ccc31)CCC2` [Compound 10-4], 94%; as for `CC(C)N(C)C(=O)Nc1ccc2c(c1)c1c(n2C(C)C)CCCC1` [Compound 5-2], 97%.
As to `CC(C)n1c2c(c3cc(NC(=O)N4CCC[C@H]4CO)ccc31)CCCC2` [Compound 7-5], the “% Inhibition ratio (10 μM)” value is on record as 100%.
`CC(C)n1c2c(c3cc(NC(=O)N4CCCCC4CO)ccc31)CCCC2` (centres unmarked) [Compound 7-9]: the “% Inhibition ratio (10 μM)” value was determined as 91%.
`CCCCN(C)C(=O)Nc1ccc2c(c1)c1c(n2C(C)C)CCCC1` [Compound 5-3]: the “% Inhibition ratio (10 μM)” value came to 98%.
Regarding `CC(C)n1c2c(c3cc(NC(=O)N(C)CCc4ccncc4)ccc31)CCCCC2` [Compound 11-3], the “% Inhibition ratio (10 μM)” value came out at 100%.
The same measure, in the same setting: then `CC(C)n1c2c(c3cc(NC(=O)N4CCCCC4CCO)ccc31)CCCC2` (centres unmarked) [Compound 7-11], with 95%; and `CC(C)n1c2c(c3cc(NC(=O)N4CCC(CCO)CC4)ccc31)CCCC2` [Compound 7-12], with 94%; and `CC(C)n1c2c(c3cc(NC(=O)N(C)CCc4ccccn4)ccc31)CCCCC2` [Compound 11-2], with 96%.
As to `CC(C)n1c2c(c3cc(NC(=O)N4CCSCC4)ccc31)CCCC2` [Compound 7-15], the “% Inhibition ratio (10 μM)” value was 88%.
Still for that read-out and setting: then `CC(C)n1c2c(c3cc(NC(=O)N4CCOCC4)ccc31)CCCCC2` [Compound 11-4], with 97%; and `CC(C)n1c2c(c3cc(NC(=O)N4CCC(N5CCCCC5)CC4)ccc31)CCCC2` [Compound 7-13], with 83%; and `CCCCn1c2c(c3cc(NC(=O)N4CCOCC4)ccc31)CCCC2` [Compound 8-5], with 85%.
On to `CC(C)n1c2c(c3cc(NC(=O)N(C)CCCN(C)C)ccc31)CCCC2` [Compound 5-5], for which the “% Inhibition ratio (10 μM)” value amounted to 82%.
For the compound `CC(C)n1c2c(c3cc(NC(=O)N4CCC(O)C4)ccc31)CCCC2` (centres unmarked) [Compound 7-4], the “% Inhibition ratio (10 μM)” value is reported as 90%.
In the case of `CC(C)n1c2c(c3cc(NC(=O)N(C)[C@H]4CC[C@H](O)CC4)ccc31)CCCC2` [Compound 5-12], the “% Inhibition ratio (10 μM)” value is recorded as 100%.
`COCCN(CCOC)C(=O)Nc1ccc2c(c1)c1c(n2C(C)C)CCCC1` [Compound 6-3]: the “% Inhibition ratio (10 μM)” value turned out to be 102%.
Take `CC(C)n1c2c(c3cc(NC(=O)N(C)CCc4ccncc4)ccc31)CCCC2` [Compound 5-20]: the “% Inhibition ratio (10 μM)” value is reported as 103%.
Still for that read-out and setting: then `CC(C)n1c2c(c3cc(NC(=O)N4CCCCC4)ccc31)CCCC2` [Compound 7-2], with 99%; and `CC(C)n1c2c(c3cc(NC(=O)N4CCSC4)ccc31)CCCC2` [Compound 7-14], with 96%.
Turning to `CC(C)n1c2c(c3cc(NC(=O)N4CCC(O)CC4)ccc31)CCCC2` [Compound 7-7], the “% Inhibition ratio (10 μM)” value was 97%.
In the case of `CC(C)n1c2c(c3cc(NC(=O)N4CCCC4)ccc31)CCCC2` [Compound 7-1], the “% Inhibition ratio (10 μM)” value came out at 92%.
On the same count and under the same terms, then `CC(=O)n1c2c(c3cc(NC(=O)N4CCOCC4)ccc31)CCCC2` [Compound 8-11], with 102%; and `CC(C)n1c2c(c3cc(NC(=O)N(C)Cc4ccncc4)ccc31)CCCC2` [Compound 5-17], with 100%; and `CC(C)n1c2c(c3cc(NC(=O)N(C)CC(O)CO)ccc31)CCCC2` (centres unmarked) [Compound 5-26], with 108%.
